According to US20200223826A1, “Glucose-6-Phosphate Dehydrogenase (G6PD)-Modulating Agents And Methods Of Treating G6PD Deficiency” (The Board of Trustees of the Leland Stanford Junior …, priority 2017, published 2020):

Columns and labels:
[1] = target: T1, G6PD in fibroblast cells carrying Mediterranean variant (Homo sapiens, UniProt P11413, S188F); assay: Cycloheximide chase in fibroblasts; type: cell-based; settings: cycloheximide treatment
T1 construct: host or cells: subject-derived fibroblast cell line
Protocol: (§1) Lymphocytes derived from a normal subject (HG 00866) and a G6PD-deficient subject carrying Canton variant in G6PD (HG 02367) were purchased from Coriell Institute and cultured in RPMI 1640 supplemented with 15% fetal bovine serum (FBS), 100 U/ml penicillin, and 100 μg/ml streptomycin. An SH-SY5Y neuroblastoma cell line was cultured in Dulbecco's Modification of Eagle's Medium/Ham's F-12 50/50 Mix supplemented with 10% FBS, 100 U/ml penicillin, and 100 μg/ml streptomycin. A G6PD-deficient subject-derived fibroblast cell line carrying Mediterranean variant and normal fibroblast cell line as control were purchased from Coriell Institute (GM 01152) and ThermoFisher Scientific (C0135C), respectively, and cultured in minimum essential medium supplemented with 15% FBS, 100 U/ml penicillin, and 100 μg/ml streptomycin. All the cell lines were maintained at 37° C. in a humidified incubator with an atmosphere of 5% of CO2 and 95% air.
(§2) 50,000 cells (SH-SH5Y cells or fibroblast cells) or 100,000 cells (lymphocytes) were seeded in a 12-well plate and incubated overnight. The cells were subjected to serum starvation (50-75%) for 48 hours and treated with 50 μg/ml of cycloheximide at different time points (0-48 hours). The cells were treated with the compound (1 μM) for 48 hours together with cycloheximide. […]

[2] = target: T2, Canton G6PD in SH-SY5Y cells (Homo sapiens, UniProt P11413, R459L); assay: Stability of Canton G6PD in SH-SY5Y cells; type: cell-based
T2 construct: expressed in transfected cells; host or cells: SH-SY5Y neuroblastoma cells
Protocol: Prior to the cellular-based assays using SH-SH5Y cells, duration of overexpression of WT G6PD and Canton variant was examined by transfecting the cells seeded in a 12-well plate. The genes encoding human WT G6PD and Canton variant were first PCR-amplified, which was then inserted into pcDNA 3.1/myc-His C (ThermoFisher Scientific) using HindIII and XhoI. 0.5 μg of cDNA and 1.5 μg of lipofectamine (Invitrogen) were diluted in 50 μL of Opti-MEM medium respectively and incubated for 5 minutes. The diluted DNA was combined with diluted lipofectamine, which was followed by incubation for 20 minutes prior to the addition to cells.
The transfected cells were collected at different time points (up to 72 hours) and the overexpressed G6PD levels were examined by Western blot. The transfection was carried out in serum-starved cells. Once the duration of expression was confirmed, other cellular-based assays were performed.
as §2
Target sequence in this assay (P11413 whole entry R459L): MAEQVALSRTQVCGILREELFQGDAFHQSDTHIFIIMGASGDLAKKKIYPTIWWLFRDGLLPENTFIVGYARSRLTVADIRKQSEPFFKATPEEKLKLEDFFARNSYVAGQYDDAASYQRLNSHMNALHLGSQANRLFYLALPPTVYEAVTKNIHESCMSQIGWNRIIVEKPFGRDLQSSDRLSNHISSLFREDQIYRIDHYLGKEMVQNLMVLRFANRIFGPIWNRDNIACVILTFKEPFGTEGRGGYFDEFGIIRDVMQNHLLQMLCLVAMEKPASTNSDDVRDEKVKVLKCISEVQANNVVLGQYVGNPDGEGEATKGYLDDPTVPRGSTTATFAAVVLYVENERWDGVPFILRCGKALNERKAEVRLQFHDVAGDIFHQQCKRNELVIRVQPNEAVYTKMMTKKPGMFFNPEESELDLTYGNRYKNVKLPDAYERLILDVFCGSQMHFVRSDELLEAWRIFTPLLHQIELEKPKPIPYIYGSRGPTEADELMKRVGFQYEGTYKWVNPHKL

[3] = target: T2, Canton G6PD in SH-SY5Y cells; assay: G6PD activity of SH-SY5Y cells expressing Canton variant; type: cell-based
Protocol: Enzyme activity was measured by monitoring NADPH production, which was coupled with diaphorase converting resazurin to fluorescent resorufin (excitation at 565 nm and emission at 590 nm); fluorescent signal was thus proportional to G6PD activity. Assays were performed at 25° C. and run for 5 minutes in buffer containing 50 mM Tris (pH 7.4), 0.5 mM EDTA, 3.3 mM MgCl2, 1 U/ml diaphorase, 0.1 mM resazurin. 10 ng of recombinant enzymes or 10 μg of cell lysates was used for the assay with 10 μM NADP^+ (Sigma) as cofactor and 100 μM G6P (Sigma) as substrate. Steady-state kinetic parameters were obtained by varying concentrations of NADP^+ (0-10 μM) with a constant concentration of G6P (100 μM) and similarly for G6P (0-100 μM) with a constant concentration of NADP^+ (10 μM) with 10 ng of recombinant enzymes. Data analysis was performed using GraphPad Prism software v.6 (GraphPad Software, La Jolla, Calif. USA). Kinetic parameters were obtained by fitting the data to the Michaelis-Menten equation.
Prior to the cellular-based assays using SH-SH5Y cells, duration of overexpression of WT G6PD and Canton variant was examined by transfecting the cells seeded in a 12-well plate. The genes encoding human WT G6PD and Canton variant were first PCR-amplified, which was then inserted into pcDNA 3.1/myc-His C (ThermoFisher Scientific) using HindIII and XhoI. […]
Target sequence in this assay (P11413 2-515 R459L): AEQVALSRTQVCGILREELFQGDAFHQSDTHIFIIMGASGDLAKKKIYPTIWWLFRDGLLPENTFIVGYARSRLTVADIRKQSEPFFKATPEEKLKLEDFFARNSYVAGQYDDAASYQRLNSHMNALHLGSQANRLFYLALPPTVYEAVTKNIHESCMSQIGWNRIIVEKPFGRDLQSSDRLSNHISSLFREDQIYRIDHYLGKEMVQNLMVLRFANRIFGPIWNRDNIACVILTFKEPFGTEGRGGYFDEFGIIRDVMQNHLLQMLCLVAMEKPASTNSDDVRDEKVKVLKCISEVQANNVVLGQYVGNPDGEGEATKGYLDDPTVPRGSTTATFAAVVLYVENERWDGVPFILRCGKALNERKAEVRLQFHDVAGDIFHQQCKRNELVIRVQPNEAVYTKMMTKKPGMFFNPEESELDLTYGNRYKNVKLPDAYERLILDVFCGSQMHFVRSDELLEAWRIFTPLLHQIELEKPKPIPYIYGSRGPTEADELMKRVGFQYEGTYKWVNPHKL

zebrafish embryos = assay: Zebrafish embryo development; type: in vivo; settings: treated at 24 hpf, scored at 32 or 48 hpf
Protocol: Adult zebrafish (AB strain; 3-18 months old) were raised and embryos were obtained through natural mating and staged according to standard protocols. Adult tbx16b104/+ were obtained. All animal procedures were performed according to NIH guidelines. Embryos were raised in E3 medium at 28.5° C.
Embryos were dechorinated with pronase at 24 hours post fertilization (hpf) and treated with 50 μg/ml of chloroquine and/or AG1 by directly adding the compounds to the well. For ROS measurements, embryos were incubated with compounds for 2 hours, and then the ROS detecting reagent (CM-H2DCFDA) was added at a final concentration of 500 ng/ml to the well for a total treatment time of 5 hours. One embryo was placed to each well of a black, opaque 96-well plate. The florescence was analyzed with excitation/emission at 485/525 nm. After ROS assays, embryos at about 32 hpf were pooled and lysed in buffer containing 50 mM Tris (pH 7.4), 150 mM NaCl, 1 mM EDTA, 0.1% NP-40, and protease inhibitor cocktail, which was followed by three cycles of freeze and thawing in liquid nitrogen. The lysate was centrifuged at 14,000 rpm at 4° C. for 15 minutes. Total protein concentration in the supernatants (total lysate) was determined by Bradford method. […] 50 μg of the lysate was used to measure NADPH levels using a NADPH quantification kit (Biovision), according to the manufacturer's instructions. […]

[4] = target: T3, Canton G6PD in lymphocytes carrying the Canton variant (Homo sapiens, UniProt P11413, R459L); assay: Cycloheximide chase assay in lymphocytes; type: cell-based; settings: 1 μM; 24 hours following cycloheximide treatment
T3 construct: host or cells: lymphocytes from a G6PD-deficient subject
Protocol: as §1, §2

T3 sequence (P11413 2-515 R459L limits assumed): as the sequence (P11413 2-515 R459L) above
T1 sequence (P11413 2-515 S188F limits assumed): as the sequence (P11413 2-515 R459L) above, with S187F, L458R counted along it

SMILES: SCCNCCc1c[nH]c2ccccc12 [AG1, 2-[2-(1H-indol-3-yl)ethylamino]ethanethiol]
- stability of G6PD [1]: stabilized
- stability of Canton G6PD [2]: increased
- G6PD activity [3]: mild increase
- concentrations at which embryos developed normally (zebrafish embryos): < 10 µM
- level of Canton protein, higher relative to vehicle treatment [4]: 48%
